Measured values reported in patent US20180333382A1, “PHARMACEUTICAL COMPOSITIONS COMPRISING DGLA AND USE OF SAME” (DS Biopharma Limited, priority 2017, published 2018).

Legend:
eosinophil = experiment: Phase II study: eosinophil concentrations by ethnicity and responder status; type: in vivo, human
Procedure: Laboratory tests were performed at screening, Day 0, Week 4 and Week 8. If Week 8 results indicated a clinically significant change from baseline, laboratory tests were also performed at Week 10. The tests included urinalysis, hematology with differential and coagulation testing, a standard chemistry panel (chemistry includes liver function tests and cholesterol), coagulation, serum pregnancy test (screening and week 8 early termination visits) for women of childbearing potential (WOCBP). At baseline (Day 0), week 2, week 4 and week 10 visits, a urine pregnancy test was performed for women of childbearing potential (conducted at the investigator site).
Eosinophils are a type of white blood cell that play an important role in the body's response to allergic reactions, asthma, and infection with parasites. Eosinophils usually account for less than 7% of the circulating white blood cells (100 to 500 eosinophils per microliter of blood). These cells have a role in the protective immunity against certain parasites but also contribute to the inflammation that occurs in allergic disorders.
FIG. 30A-B. In particular, 56% of DS107-treated African America patients were classified as Responders, versus only 7% of Caucasian patients. […]

[1] = Phase one study part 2: free and total DGLA in skin blister fluid; type: in vivo, human
Description: The PK of DGLA in human skin following multiple doses of DS107G capsule given once daily for 28 days to healthy subjects.

[2] = Phase one study: safety and tolerability (TEAEs, vital signs, ECG); settings: for tolerability: healthy volunteers
Procedure: Screening procedures were conducted for both parts one and two before the start of the study on Day −1 (Baseline) by evaluating the safety assessments.
Subjects were monitored throughout their confinement at the Phase 1 unit for adverse reactions to the study drug and/or procedures.
Safety analyses were performed on the safety population tabulated by treatment arm, cohort, and visit. All safety data were characterized by descriptive statistical tools. […] Evaluation of safety assessments was performed in a descriptive manner. Continuous variables were characterized by their mean, standard deviation (SD), median, minimum and maximum values; discrete variables were characterized by their absolute (frequency) and relative (percentage) distribution.

CCCCC/C=C\C/C=C\C/C=C\CCCCCCC(=O)O [DS107G, Dihomo gamma linolenic acid]
eosinophil concentrations (eosinophil; African American vs Caucasian patients, each time point measured): statistically significant reductions | eosinophil concentration (eosinophil; treated Responders vs Non-responders, all time points): statistically significant decrease | mean free DGLA concentrations in skin blister fluid with a doubling in dose ([1]; Days 1, 8, 14 and 28): approximately doubled | mean free DGLA concentrations in skin blister fluid, Day 28 vs Day 1 ([1]; both 2000 and 4000 mg daily): about 3 fold | mean concentrations of free DGLA, plasma vs skin blister fluid ([1]; same dose, Day 8 and Day 14 (but not Day 28)): somewhat similar in plasma and skin blister fluid | mean concentrations of total DGLA, plasma vs skin blister fluid ([1]; same dose, after Day 1): much higher in plasma than in skin blister fluid | tolerability ([2]; 2000- or 4000-mg once daily for 28 consecutive days): tolerated well | subjects reporting diarrhea ([2]; 2000-mg group, 3/6): 50% | subjects reporting diarrhea ([2]; 4000-mg group, 4/6): 66.7% | subjects reporting nausea ([2]; 4000-mg treatment group, 4/6, 10 events): 66.7% | deaths ([2]; multi-dose study): no deaths | severe TEAEs ([2]; multiple dose): no severe TEAEs | incidence of TEAEs ([2]; multiple dose, 11/12 active-treated subjects, total of 52 TEAEs): 91.73% | tolerability ([2]; single dose 500, 1000, 2000 or 4000 mg): well tolerated | incidence of diarrhea (loose stool) ([2]; single dose, 5/24 active-treated subjects): 20.8%
